Measured values published in patent US6670485B2, “Prostanoic acid derivatives as agents for lowering intraocular pressure” (Allergan, Inc., priority 2001, dated 2003).

Columns and labels:
Dog intraocular pressure = experiment: Intraocular pressure in dogs by applanation pneumatonometry; format: in vivo; conditions: 25 μl to the ocular surface, contralateral eye vehicle, IOP before drug administration and at 6 hours thereafter
Description: The effects of the compounds of this invention on intraocular pressure are also measured. The compounds are prepared at the said concentrations in a vehicle comprising 0.1% polysorbate 80 and 10 mM TRIS base. Dogs are treated by administering 25 μl to the ocular surface, the contralateral eye received vehicle as a control. Intraocular pressure is measured by applanation pneumatonometry. Dog intraocular pressure is measured immediately before drug administration and at 6 hours thereafter.

intraocular pressure = experiment: Intraocular pressure in glaucomatous cynomolgus monkeys; format: in vivo; conditions: glaucomatous cynomonlgus monkeys

Row | SMILES | ocular hypotensive effect (Dog intraocular pressure) | ocular hypotensive effect (intraocular pressure)
1 | C=CCOC(=O)CCC/C=C\C[C@H]1C(=O)C[C@@H](O)[C@@H]1/C=C/[C@@H](O)CCc1sc2ccccc2c1Cl [6(a), (Z)-7-{(1R,2R,3R,5S)-2-[(E)-(S)-5-(3-Chlorobenzo[b]thiophen-2-yl)-3-hydroxypent-1-enyl]-3-hydroxy-5-oxocyclopentyl}hept-5-enoic acid allyl ester] | pronounced ocular hypotensive effect | 
2 | O=C(O)CCC/C=C\C[C@H]1C(=O)C[C@@H](O)[C@@H]1/C=C/[C@@H](O)CCc1sc2ccccc2c1Cl [7(a), (Z)-7-{(1R,2R,3R,5S)-2-[(E)-(S)-5-(3-Chlorobenzo[b]thiophen-2-yl)-3-hydroxypent-1-enyl]-3-hydroxy-5-oxocyclopentyl}hept-5-enoic acid] |  | pronounced ocular hypotensive effect
